Results reported in patent US20240000741A1, “ALL-TRANS RETINOIC ACID ENHANCES RADIOTHERAPY AND OVERCOMES IMMUNE SUPPRESSION FOR CANCER THERAPY” (The University of Chicago, priority 2022, published 2024).

Key:
[1] = test system: LLC cells; experiment: Tumor re-challenge of cured mice with LLC cells; format: in vivo, mouse; conditions: mice cured by IR+RA vs naive mice, 1×10^6 LLC cells
Experimental: 1×10^6 MC38, B16/F1, Renca or CT26 cells were subcutaneously implanted into flanks of mice. Tumors were irradiated using a Phillips IR250 orthovoltage X-ray generator (Phillips, Amsterdam, the Netherlands) operating at 250 kV 15 mA. Subcutaneous local tumors were irradiated by shielding bodies with a cylindrical lead cover with only flank tumors exposed for radiation. ATRA (400 μg/mice/day) was administered by oral gavage for 10 days. For the two-tumor model, 1×10^6 and 0.7×10^6 MC38 cells were subcutaneously implanted into the right and left flank of mice respectively. For the tumor re-challenge assay, both the cured mice and the naive mice were re-challenged with 5×10^6 MC38 or 1×10^6 LLC cells respectively. Tumors were measured along two diameters (length and width) and depth twice weekly and volumes were calculated as length×width×depth/2. For CD8 and CD4 T cell depletion experiments, 200 μg antibodies were injected i.p. on day 0, 2, 5 and 8 after radiation. Anti-CD11b antibody was injected i.p. every two days starting 1 day before radiation. Anti-PD-L1 antibody was administered i.p. on day 0, 3, and 7 after radiation at 200 μg/mouse. Anti-IFN-γ was administered i.p. at 500 μg/mouse every 7 days. Anti-NK1.1 antibody was administered via i.p. at 25 μg/mouse every 3 days for 3 doses. Anti-GM-CSF antibody was given by i.p. injection at 250 μg/mouse every 2 days. […]

[2] = test system: MC38 tumor in Rag1−/− mice; conditions: ATRA 400 ug/each oral gavage daily plus X-ray 2 Gy/fraction, three consecutive days
Experimental: To further study whether T cell responses are important for the antitumor efficacy of ATRA (+) treatment, 2×10^6 MC38 cells were inoculated into the right flanks of Rag1^−/− […] mice, which are deficient of T and B cells. When the tumors reached 100-120 mm^3 in volume, Rag1^−/− mice were administered 400 ug/each ATRA daily via oral gavage followed by 2 Gy/fraction X-ray on three consecutive days. The tumor size was measured with a caliper every day and the tumor volume calculated as 0.5×length×width 2. All of the mice were sacrificed when the control group tumors reached about 2000 mm^3.

[3] = test system: MC38 colon carcinoma tumors; experiment: MC38 tumor growth after local ablative IR and/or RA; format: in vivo, mouse
[4] = test system: immune cells in non-irradiated tumors; experiment: Flow cytometric analysis of non-irradiated tumors in the two-tumor model; format: in vivo, mouse
Excerpt: Single cell suspensions were obtained as previously described (40). Cells were blocked with anti-Fc receptor (2.4 G2, BioXCell, Lebanon, New Hampshire, United States of America) and stained for live/dead with Zombie UV, followed staining using antibodies against CD45, CD4, CD8, NK1.1, CD11b, CD11c, Ly6C, Ly6G, F4/80, CD44, CD62L.
More CD8^+ T and CD4^+ T cells were also observed in the non-irradiated tumors when primary tumors received IR+RA treatment.

[5] = test system: MC38 syngeneic subcutaneous flank tumor; experiment: ATRA-sensitized fractionated radiotherapy in MC38 tumor bearing C57BL/6 mice; format: in vivo, mouse; conditions: 3 fractions
Experimental: A MC38 syngeneic subcutaneous flank tumor-bearing mouse model was used for the evaluation of in vivo efficacy of ATRA-sensitized radiotherapy. 2×10^6 MC38 cells were injected into the right flank subcutaneous tissues of C57BL/6 background mice. […] After administration, mice were anaesthetized with 2% (v/v) isoflurane and the tumors were irradiated daily with X-ray at a dose of 2 Gy/fraction (225 kVp, 13 mA, 0.3 mm-Cu filter) for a total of 3 fractions. Oil (equal volume/each) was administrated daily with or without irradiation as controls. […] All the mice were sacrificed when the tumors reached about 2,000 mm^3.

[6] = test system: B16 melanoma tumor model; experiment: B16 melanoma tumor growth after IR and RA; format: in vivo, mouse; conditions: IR and RA combination compared with single treatments
Experimental: 1×10^6 MC38, B16/F1, Renca or CT26 cells were subcutaneously implanted into flanks of mice. Tumors were irradiated using a Phillips IR250 orthovoltage X-ray generator (Phillips, Amsterdam, the Netherlands) operating at 250 kV 15 mA. Subcutaneous local tumors were irradiated by shielding bodies with a cylindrical lead cover with only flank tumors exposed for radiation. ATRA (400 μg/mice/day) was administered by oral gavage for 10 days. For the two-tumor model, 1×10^6 and 0.7×10^6 MC38 cells were subcutaneously implanted into the right and left flank of mice respectively. […] Tumors were measured along two diameters (length and width) and depth twice weekly and volumes were calculated as length×width×depth/2. For CD8 and CD4 T cell depletion experiments, 200 μg antibodies were injected i.p. on day 0, 2, 5 and 8 after radiation. Anti-CD11b antibody was injected i.p. every two days starting 1 day before radiation. Anti-PD-L1 antibody was administered i.p. on day 0, 3, and 7 after radiation at 200 μg/mouse. Anti-IFN-γ was administered i.p. at 500 μg/mouse every 7 days. Anti-NK1.1 antibody was administered via i.p. at 25 μg/mouse every 3 days for 3 doses. Anti-GM-CSF antibody was given by i.p. injection at 250 μg/mouse every 2 days. FTY720 was delivered via gavage at 20 μg per dose every day for 7 days. […]

[7] = 8 days after IR+RA combination treatment
[8] = ATRA 400 μg/each oral gavage daily plus X-ray 2 Gy/fraction

CC1=C(/C=C/C(C)=C/C=C/C(C)=C/C(=O)O)C(C)(C)CCC1 [RA, all-trans retinoic acid]
growth of LLC after re-challenge [1]: grew at the same rate | therapeutic effect on MC38 tumors in Rag1−/− mice [2]: did not show any therapeutic effect | MC38 tumor growth ([3]; IR (15 Gy) plus RA 400 μg/dose oral gavage, compared to untreated controls or any single treatment): synergistically inhibited tumor growth | complete tumor regression ([3]; IR (15 Gy) plus RA combination treatment): 17 of 19 | tumor inhibition ([3]; IR with RA administered by i.p. injection): Significant tumor inhibition effects | tumor inhibition ([3]; IR with RA at a lower dose (200 μg/dose) by oral gavage): Significant tumor inhibition effects | tumor inhibition ([3]; IR with slow RA-releasing pellets implanted subcutaneously): Significant tumor inhibition effects | MC38 tumor growth ([3]; IR+RA, tumors grown in Rag1−/− mice, in contrast to wild type mice): did not respond | survival ([3]; RA alone): ≤ 50 days | MC38 tumor growth ([3]; RA alone, 400 μg/dose oral gavage): no significant effect | MC38 tumor growth ([3]; higher dose of RA alone (800 μg/mouse/dose) for 7 days): inhibited | PD-L1 expression on DCs in non-irradiated tumors ([4]; 3 days post IR+RA treatment): Increased | PD-L1 expression on tumor cells in non-irradiated tumors ([4]; 3 days post IR+RA treatment): Increased | CD11c+iNOS+ cells in non-irradiated tumor [4, 7]: increased | proportion of CD11b+ cells in non-irradiated tumors [4, 7]: significantly increased proportion | proportion of CD11b+CD11c+Ly6C+ cells in non-irradiated tumors [4, 7]: significantly increased proportion | CD4+ T cells in non-irradiated tumors ([4]; primary tumors received IR+RA): More | CD8+ T cells in non-irradiated tumors ([4]; primary tumors received IR+RA): More | Foxp3+CD4+ T cells in non-irradiated tumors ([4]; primary tumors received IR+RA): marked decrease | proportion of CD4+ IFN-γ+ cells in non-irradiated tumors ([4]; primary tumors received IR+RA): increased | proportion of CD8+ IFN-γ+ cells in non-irradiated tumors ([4]; primary tumors received IR+RA): increased | proportion of CD8+GzmB+ cells in non-irradiated tumors ([4]; primary tumors received IR+RA): increased | MC38 tumor growth [5, 8]: greatly regressed the growth of tumors | mice totally free of tumors [5, 8]: 5 out of 5 | body weight ([5]; ATRA and X-ray 2 Gy/fraction): did not lose body weight | time without tumor regrowth ([5]; ATRA plus X-ray 2 Gy/fraction): ≥ 30 days | B16 tumor growth [6]: significant benefit
